Experimental data taken from patent US20170182088A1, “METHOD AND APPARATUS FOR ADMINISTERING NITRIC OXIDE WITH SUPPLEMENTAL DRUGS” (GENO LLC, priority 2015, published 2017).

How the values were obtained:
Nox4 = target: T1, Nox4 (Homo sapiens, UniProt Q9NPH5); conditions: cited from earlier work
T1 construct: endogenous in cells; host or cells: pulmonary vascular wall cells under hypoxia
T1 sequence (Q9NPH5 1-578): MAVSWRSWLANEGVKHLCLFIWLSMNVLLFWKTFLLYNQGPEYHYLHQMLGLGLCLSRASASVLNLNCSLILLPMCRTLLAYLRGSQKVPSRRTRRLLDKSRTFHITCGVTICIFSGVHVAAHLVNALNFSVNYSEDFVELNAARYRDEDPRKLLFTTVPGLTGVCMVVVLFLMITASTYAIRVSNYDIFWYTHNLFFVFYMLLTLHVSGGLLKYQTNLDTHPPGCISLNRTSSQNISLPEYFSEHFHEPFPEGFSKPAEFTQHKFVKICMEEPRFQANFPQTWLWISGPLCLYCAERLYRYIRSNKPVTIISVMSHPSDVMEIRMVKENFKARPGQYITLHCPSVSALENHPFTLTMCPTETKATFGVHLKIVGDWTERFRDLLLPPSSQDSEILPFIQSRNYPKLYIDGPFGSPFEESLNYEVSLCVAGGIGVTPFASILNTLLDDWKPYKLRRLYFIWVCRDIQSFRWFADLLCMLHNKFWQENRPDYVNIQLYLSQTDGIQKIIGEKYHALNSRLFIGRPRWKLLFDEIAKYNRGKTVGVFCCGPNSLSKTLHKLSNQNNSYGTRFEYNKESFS
T1 sequence (P13498 1-195 partner): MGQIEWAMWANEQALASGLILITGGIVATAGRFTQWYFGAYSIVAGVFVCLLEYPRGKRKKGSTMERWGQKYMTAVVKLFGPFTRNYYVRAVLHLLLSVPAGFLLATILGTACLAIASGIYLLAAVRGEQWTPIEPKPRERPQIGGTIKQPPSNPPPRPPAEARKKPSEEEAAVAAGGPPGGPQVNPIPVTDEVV

TRPM2 = target: T2, TRPM2 (Mus musculus, UniProt Q91YD4); conditions: responses comparable to fMLP-stimulated TRPM2 KO PMN; cited from earlier work
T2 construct: endogenous in cells; host or cells: PMN (neutrophils), fMLP-stimulated; work retold from a cited abstract (J. Immunol. 2010, 184)
T2 sequence (Q91YD4 whole entry): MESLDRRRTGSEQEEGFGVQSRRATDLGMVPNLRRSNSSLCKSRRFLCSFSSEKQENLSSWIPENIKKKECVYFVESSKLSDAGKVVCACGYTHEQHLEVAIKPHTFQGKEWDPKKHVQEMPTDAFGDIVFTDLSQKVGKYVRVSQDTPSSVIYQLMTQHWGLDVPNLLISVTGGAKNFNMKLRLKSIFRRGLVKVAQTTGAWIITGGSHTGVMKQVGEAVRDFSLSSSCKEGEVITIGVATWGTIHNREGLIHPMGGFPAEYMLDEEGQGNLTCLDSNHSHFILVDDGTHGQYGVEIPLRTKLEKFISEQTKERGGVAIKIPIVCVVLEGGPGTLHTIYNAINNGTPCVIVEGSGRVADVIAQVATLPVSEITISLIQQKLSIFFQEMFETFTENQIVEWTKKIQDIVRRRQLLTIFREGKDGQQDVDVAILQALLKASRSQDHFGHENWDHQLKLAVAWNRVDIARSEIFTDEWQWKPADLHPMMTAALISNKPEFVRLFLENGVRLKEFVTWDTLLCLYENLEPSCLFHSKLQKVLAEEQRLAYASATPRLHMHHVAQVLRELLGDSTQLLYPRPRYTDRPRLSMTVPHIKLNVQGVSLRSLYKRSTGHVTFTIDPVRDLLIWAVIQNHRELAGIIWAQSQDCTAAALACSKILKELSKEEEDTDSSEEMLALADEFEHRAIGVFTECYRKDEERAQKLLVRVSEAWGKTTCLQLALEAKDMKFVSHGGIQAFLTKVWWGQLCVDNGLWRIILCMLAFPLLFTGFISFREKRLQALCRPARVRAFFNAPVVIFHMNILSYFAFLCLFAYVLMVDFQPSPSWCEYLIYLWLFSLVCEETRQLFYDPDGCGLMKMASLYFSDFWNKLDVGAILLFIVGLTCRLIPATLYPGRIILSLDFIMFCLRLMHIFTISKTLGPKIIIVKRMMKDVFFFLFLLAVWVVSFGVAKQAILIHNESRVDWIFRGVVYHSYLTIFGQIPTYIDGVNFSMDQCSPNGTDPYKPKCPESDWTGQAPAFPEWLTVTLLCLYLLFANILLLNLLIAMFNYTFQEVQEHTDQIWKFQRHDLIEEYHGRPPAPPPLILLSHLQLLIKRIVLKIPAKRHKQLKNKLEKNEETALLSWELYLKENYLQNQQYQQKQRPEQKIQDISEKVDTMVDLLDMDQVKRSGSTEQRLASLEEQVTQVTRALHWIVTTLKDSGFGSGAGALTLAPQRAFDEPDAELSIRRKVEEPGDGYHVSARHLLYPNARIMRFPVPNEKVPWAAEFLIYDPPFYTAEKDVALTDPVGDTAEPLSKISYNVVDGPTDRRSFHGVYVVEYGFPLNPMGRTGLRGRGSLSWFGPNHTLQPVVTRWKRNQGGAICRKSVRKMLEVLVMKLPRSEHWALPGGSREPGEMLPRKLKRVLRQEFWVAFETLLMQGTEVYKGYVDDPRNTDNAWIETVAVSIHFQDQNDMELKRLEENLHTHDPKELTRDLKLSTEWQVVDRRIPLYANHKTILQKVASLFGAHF

PMN (Neutrophil) = conditions: cited from earlier work
Angiotensin II = conditions: cited from earlier work
neonatal rats = conditions: cited from earlier work
[1] = tested on: mice with intratracheal administration of LPS; test: LPS-induced lung injury in mice (intratracheal LPS); assay type: in vivo; conditions: for lung injury after intratracheal LPS: 2% H2 and/or 20 ppm NO for 3 hours starting at 5 minutes or 3 hours after LPS; for pulmonary inflammation and cell apoptosis: H2 and/or NO treatment
neonatal piglets = conditions: short-term inhaled exposure; cited from earlier work
rats = conditions: inhaled; cited from earlier work
NF-κB = test: LPS-induced pulmonary NF-κB activation; assay type: in vivo, mice; conditions: H2 and/or NO treatment
polymicrobial sepsis = test: Polymicrobial sepsis-induced lung injury; assay type: in vivo; conditions: H2 and/or NO treatment
From the text: However until applicants' discovery, there has not been a successful combination of hydrogen gas with breathing gas using the claimed apparatus and methods. Applicants have discovered that NO's effect as an antioxidant may be enhanced by eliminating highly reactive by-products of NO inhalation such as peroxynitrite, by adding H2 to inhaled NO gas.

brain injury = conditions: inhaled, acute rat model; cited from earlier work
CTGF [2] = conditions: fibroblasts exposed to TGF-β; cited from earlier work
CTGF [3] = conditions: infusion, scleroderma patients; cited from earlier work

Compound: CN(C)c1cccc(-c2c3c(=O)n(-c4ccccc4Cl)[nH]c3cc(=O)n2C)c1 [GKT137831]
- hypoxia-induced pulmonary vascular cell proliferation (Nox4): attenuates

Compound: Clc1ccccc1C(c1ccccc1)(c1ccccc1)n1ccnc1 [clotrimazole]
- Ca2+ influx (TRPM2): blocked
- PMN directionality (PMN (Neutrophil)): significantly inhibited

Compound: CC(=O)N[C@@H](CS)C(=O)O [N-acetylcysteine]
- Ang II-stimulated DNA synthesis, cell migration, pro-collagen α1(I) mRNA expression, secretion of TGF-β1 and inflammatory cytokines (Angiotensin II): attenuated

Compound: COC(=O)[C@@H](N)CCCNC(=N)N[N+](=O)[O-] [Nw-nitro-l-arginine methyl ester]
- survival on exposure to >95% O2 compared with control rats (neonatal rats): significantly fewer survived

Compound: O=C(O)c1ccccc1Nc1cccc(C(F)(F)F)c1 [FA]
- Ca2+ influx (TRPM2): blocked

Compound: [N]=O [NO, nitric oxide]
- lung injury after intratracheal LPS [1]: significantly improved
- pulmonary inflammation and cell apoptosis [1]: down-regulated
- lung collagen accumulation (neonatal piglets): increases
- survival in high O2 exposure (rats): increase
- LPS-induced pulmonary early and late NF-κB activation (NF-κB): inhibited
- lung injury in polymicrobial sepsis (polymicrobial sepsis): significantly attenuated

Compound: Clc1ccc(COC(Cn2ccnc2)c2ccc(Cl)cc2Cl)cc1 (stereo not drawn) [Econazole]
- Ca2+ influx (TRPM2): blocked
- PMN directionality (PMN (Neutrophil)): significantly inhibited

Compound: O=O [O2, oxygen]
- lung collagen accumulation (neonatal piglets): increases

Compound: c1ccc2c(c1)[I+]c1ccccc1-2 [diphenylene iodonium]
- Ang II-stimulated DNA synthesis, cell migration, pro-collagen α1(I) mRNA expression, secretion of TGF-β1 and inflammatory cytokines (Angiotensin II): attenuated

Compound: [HH] [H2, hydrogen]
- lung injury after intratracheal LPS [1]: significantly improved
- pulmonary inflammation and cell apoptosis [1]: down-regulated
- LPS-induced pulmonary early and late NF-κB activation (NF-κB): inhibited
- lung injury in polymicrobial sepsis (polymicrobial sepsis): significantly attenuated
- brain injury associated with focal ischemia-reperfusion (brain injury): markedly suppressed

Compound: CC#CCC(C)[C@H](O)/C=C/[C@@H]1[C@H]2C/C(=C/CCCC(=O)O)C[C@H]2C[C@H]1O (stereo partly drawn) [Iloprost]
- increase in collagen synthesis (CTGF [2]): blocks
- induction of CTGF (CTGF [2]): blocks
- dermal CTGF levels (CTGF [3]): marked decrease
